In patent US12329755B2, “Bromodomain inhibitors to target therapy-resistant cancer” (University of Tennessee Research Foundation, priority 2019, dated 2025):
Entries after “also recorded” stand apart in the source; their conditions may differ.

Legend:
X16 BTIC = X16 BTIC mouse flank xenografts; assay type: in vivo, mice; settings: combined with TMZ; for tumor growth: 2 weeks post-treatment, compared with PFI-3 and TMZ, BRI 0.5 μg/mouse, TMZ 0.25 mg/mouse IP alternate days
Experimental: FIG. 1F is a graph showing the effect of temozolomide (TMZ) on the tumorigenicity of control (black portion of bars) and Brahma-related gene-1-knock-down (BRG1-KD) (grey portion of bars) brain-tumor initiating cells (BTICs) after injection of 10^6 tumor cells into the flanks of immunodeficient mice. Live animal imaging preformed at weekly intervals. After confirming tumor initiation by live animal imaging, mice were treated with TMZ by interperitoneal (IP) injection (10 milligrams per kilogram (mg/kg) on alternate days). The reduction in tumor volume was calculated at 1 week (left) and 2 weeks (right) post-treatment. *p≤0.05.
FIG. 5 is a graph showing the effect of Brahma-related gene-1 bromodomain inhibitors (BRIs), PFI-3 and the PFI-3 analogs (PAs) IV-073, IV-077, and IV-085, on the anticancer activity of temozolomide (TMZ) on brain-tumor initiating-cell (BTIC) tumor growth. BTICs (10^6 cells) from X16 glioblastoma were injected into the flanks of immunodeficient mice. After confirming tumor initiation by live animal imaging, mice were treated with PFI-3 or a PA (0.5 microgram per mouse (μg/mouse)) and TMZ (0.25 mg/mouse) by intrarperitoneal (IP) injection on alternate days. The reduction in tumor volume was calculated at 2 weeks post-treatment.
BRG1 loss sensitizes BTICs to TMZ in vitro and in vivo: Although the alkylating agent TMZ is front-line chemotherapy in the treatment of GBM, a significant clinical problem is intrinsic or adaptive resistance to TMZ.^63 To evaluate TMZ sensitivity, GBM6 or X16 BTICs were treated with 300 μM or 500 μM TMZ, and cell proliferation was determined. […] Since BRG1 has been implicated in DNA double-strand break repair,^65-67 it was hypothesized that BRG1 loss in BTICs would sensitize BTICs to TMZ. […] To determine whether BRG1-KD sensitized BTICs to TMZ in vivo, animal studies were conducted with control (scrambled shRNA) and BRG1-KD X16 BTICs injected into the flanks of NSG mice. After tumor initiation was confirmed by live animal imaging, mice were treated with TMZ. […] Thus, despite X16 BRG1-KD BTICs producing larger tumors, the tumors were sensitized to TMZ therapy.
In contrast, all mice with single drug treatment had to be euthanized because the tumors had reached […] by 3 weeks post-treatment.

GBM cells [1] = experiment: overall statements on GBM cell death and sensitization to TMZ; assay type: cell-based; settings: for sensitizing activity to TMZ compared to PFI-3: in vitro and in an animal model of GBM; for GBM cell death: used alone
From the text: The syntheses of two exemplary PA BRIs, referred to herein as YH-IV-073 (or IV-073), and YH-IV-077 (or IV-077), as well as of PFI-3 (also referred to herein as YH-IV-081), are shown in Scheme 2, below. As shown in Scheme 2, commercially available tert-butyloxycarbonyl (BOC)-protected amine 1 is contacted with 2-bromopyridine (2) to form intermediate 3. The protecting group can be removed (e.g., via hydrolysis) to give the corresponding amine 4. Compound 4 can be coupled with a carboxylic acid (5, 6, or 7) to afford target YH-IV-073, YH-IV-077 and YH-IV-081, respectively. […] These analogs will provide greater insight into the importance of substitution of the A ring.
The synthetic route shown in Scheme 3, below, was used to synthesize new analogs with different substituents in the 2-position of the A-ring, such as YH-IV-085. As shown in Scheme 3, a commercially available 1-phenylprop-2-yn-1-one (e.g., 8 or 9) can be reacted with BOC-protected amine compound 1 to afford a BOC-protected intermediate (e.g., 10 or 11), which can be hydrolyzed to provide corresponding deprotected intermediate (12 or 13). The intermediates can be coupled with the 2-bromopyridine (2) to yield target compounds (e.g., 14 or YH-IV-085), respectively. YH-IV-085 is believed to be the first PFI-3 analog prepared without a 2-hydroxy moiety in the A-ring.

[2] = tested on: LN229 TMZ-resistant glioma cell line; experiment: IncuCyte live cell imaging proliferation assay; assay type: cell-based; settings: for sensitization to TMZ: BRI 1 μM combined with 100 μM TMZ; for effect on cell growth: BRI alone (1 μM)
Experimental: (§1) FIG. 2A is a graph showing relative growth of temozolomide (TMZ)-resistant glioma cells (LN229 cells) alone (control); after treatment with 100 micromolar (μM) TMZ; after treatment with a Brahma-related gene-1 bromodomain inhibitor (BRI), PFI-3 (1 μM); or after treatment with both TMZ and PFI-3 (combined).
as §1, with “2B” for “2A”, “IV-073” for “PFI-3”
as §1, with “2C” for “2A”, “LN229 Temozolomide” for “temozolomide”, “cells” for “cells (LN229 cells)”, “IV-077” for “PFI-3”
as §1, with “2D” for “2A”, “LN229 Temozolomide” for “temozolomide”, “cells” for “cells (LN229 cells)”, “IV-085” for “PFI-3”
To determine whether PFI-3 (also called YH-IV-081) and its analogs (referred to herein as “PAs”) enhanced TMZ sensitivity IncuCyte live cell imaging proliferation assays (high throughput system) were performed with the LN229 TMZ-resistant glioma cell line.

[3] = biological target: T1, GFP-tagged bromodomain of BRG1 (GFP-BRG1 BRD) (Homo sapiens, UniProt P51532); experiment: nuclear localization of fluorescently tagged BRG1 bromodomain in MT330 GBM cells; assay type: cell-based; settings: PFI-3 10 or 30 μM; IV-073 5, 10 or 30 μM; compared to DMSO
T1 construct: a fluorescently tagged bromodomain of BRG1 expressed in MT330 GBM cells; expressed in transfected cells; host or cells: MT330 GBM cells
From the text: FIG. 4 is a series of fluorescence microscopy images showing the effects of Brahma-related gene-1 bromodomain inhibitors (BRIs) on the nuclear localization of a green fluorescent protein (GFP)-tagged bromodomain of Brahma-related gene-1 (GFP-BRG1 BRD).
The effects of PFI-3 and its analogs on the nuclear localization of a fluorescently tagged bromodomain of BRG1 expressed in MT330 GBM cells was studied. In the control samples, the fluorescent bromodomain is localized to the nucleus. However, an inhibitor displaces it from the nucleus and the fluorescence signal markedly decreases because it is degraded in the cytoplasm.

bromodomain of BRG1 = biological target: T2, bromodomain of BRG1 (Homo sapiens, UniProt P51532); experiment: thermal shift assay of the BRG1 bromodomain in MT330 GBM cells; assay type: binding; settings: 44.5° C. to 55.6° C.; PFI-3 30 μM, IV-073 20 μM, two hours; compared to DMSO
T2 construct: The assay involved the use of the bromodomain of BRG1 in MT330 GBM cells; expressed in transfected cells; host or cells: MT330 GBM cells
Experimental: FIG. 3 is a series of immunoblot images showing the effects of Brahma-related gene-1 bromodomain inhibitors (BRIs) on the stability of the bromodomain of Brahma-related gene-1 in a thermal assay shift of the bromodomain in glioblastoma cells over a temperature range from 44.5 degrees Celsius (° C.) to 55.6° C. Cells were treated with (middle) PFI-3 (30 micromolar (μM)) for two hours or (right), a PFI-3 analog of the presently disclosed subject matter (IV-073) (20 μM) for two hours. For comparison, control cells treated with dimethyl sulfoxide (DMSO) are shown at […].
To further study the activity of the presently disclosed PFI-3 analogs, a thermal shift assay was employed. The assay involved the use of the bromodomain of BRG1 in MT330 GBM cells at temperatures ranging from 44.5° C. to 55.6° C.

X16 BTICs = settings: X16 BTICs; cited from earlier work
X10 BTICs = settings: X10 BTICs; cited from earlier work
GBM cells [4] = experiment: survival of mice after intracranial injection of GBM cells; assay type: in vivo; settings: combination with TMZ, intraperitoneal, 10 mg/kg body weight
Experimental: FIG. 6 is a graph showing the survival curves (percent survival versus days after treatment) of mice after intracranial injection of glioblastoma (GBM) cells and intraperitoneal injection of temozolomide (TMZ) or combinations of TMZ and a Brahma-related gene-1 bromodomain inhibitors (BRIs): PFI-3 or one of the presently disclosed PFI-3 analogs (PAs) IV-073 or IV-085. Five mice per group were treated with TMZ with or without the BRI (10 milligrams per kilogram (mg/kg) body weight.
TMZ with or without a BRI was also tested in mice after intercranial injection of GBM cells.

T1 sequence (P51532 1453-1564 limits assumed): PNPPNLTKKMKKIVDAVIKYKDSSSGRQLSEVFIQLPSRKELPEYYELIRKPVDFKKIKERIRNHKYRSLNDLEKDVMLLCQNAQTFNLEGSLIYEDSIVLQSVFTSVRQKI
T2 sequence (P51532 1453-1564 limits assumed): as above

SMILES | tumor growth (X16 BTIC) | tumors after treatment for 8 weeks (X16 BTIC) | sensitizing activity to TMZ compared to PFI-3 (GBM cells [1]; listed as YH-IV-073) | GBM cell death (GBM cells [1]) | sensitization to TMZ [2] | effect on cell growth [2] | displacement of the BRG1 bromodomain from the nucleus [3] | stabilization of the BRG1 bromodomain (bromodomain of BRG1) | Carmustine sensitivity (X16 BTICs) | Carmustine sensitivity (X10 BTICs) | sensitizing activity to TMZ compared to PFI-3 (GBM cells [1]) | animal survival (GBM cells [4])
O=C(/C=C/N1C[C@H]2C[C@@H]1CN2c1ccccn1)c1cc(F)ccc1O [IV-073, (E)-1-(5-fluoro-2-hydroxyphenyl)-3-((1R,4R)-5-(pyridin-2-yl)-2,5-diazabicyclo[2.2.1]heptan-2-yl)prop-2-en-1-one] | marked effect on tumor growth | only small tumors were detectable | significantly improved sensitizing activity; also recorded: better efficacy | do not cause GBM cell death | potently sensitized | relatively minor effects on cell growth | more effective in displacing the bromodomain | more effective in stabilizing the bromodomain |  |  |  | 
O=NN(CCCl)C(=O)NCCCl [Carmustine] |  |  |  |  |  |  |  |  | highly resistant | highly resistant |  | 
O=C(/C=C/N1C[C@H]2C[C@@H]1CN2c1ccccn1)c1ccc(Cl)cc1O [IV-077, (E)-1-(4-chloro-2-hydroxyphenyl)-3-((1R,4R)-5-(pyridin-2-yl)-2,5-diazabicyclo[2.2.1]heptan-2-yl)prop-2-en-1-one] |  |  |  | do not cause GBM cell death | potently sensitized | relatively minor effects on cell growth |  |  |  |  | significantly improved sensitizing activity | 
O=C(/C=C/N1C[C@H]2C[C@@H]1CN2c1ccccn1)c1ccccc1Cl [IV-085, (E)-1-(2-chlorophenyl)-3-((1R,4R)-5-(pyridin-2-yl)-2,5-diazabicyclo [2.2.1]heptan-2-yl) prop-2-en-1-one] | marked effect on tumor growth | only small tumors were detectable |  | do not cause GBM cell death | potently sensitized | relatively minor effects on cell growth |  |  |  |  | significantly improved sensitizing activity | greatest effect
